Assay results taken from patent US9403800B2, “Compounds for inhibition of cancer cell proliferation” (ChemRegen, Inc., priority 2012, dated 2016).

What was measured:
xenopus embryos = test: xenopus embryo development and marker gene expression; assay type: in vivo
Description: Previous studies highlighted the importance of Wnt pathway signaling in promoting cellular differentiation. Accordingly, the physiological relevance of the Wnt inhibitory functions of 1 was shown by the effect of this compound on the morphology of xenopus embryos during embryonic development. […] Vent2 and Otx2 are regulated by TCF3 during anteroposterior axis specification in xenopus embryos and HIPK2 antagonizes them through phosphorylation of TCF3. These phenotypes are very similar to embryos with TCF3-knockout and contrast to those of HIPK2-knockout. Together, the observations indicate that compound 1 activates HIPK2 to remove TCF proteins from their target DNA via phosphorylation.

[1] = test system: Endogenous Target Genes for Wnt & Apoptotic Pathways in MDA-MB 231; test: qPCR of Wnt and pro-apoptotic target genes, MDA-MB 231; assay type: cell-based; set-up: concentration or dose not given beside the values; details: MDA-MB 231, 24 hrs, qPCR normalized to 36B4
Description: (§1) Given the effects of Compounds 1, 4, and 15 on biological functions (e.g., proliferation, viability, and apoptosis) in several cancer cell lines, we tested the effects of compounds 1, 4, and 15 on regulation of endogenous Wnt and pro-apoptotic gene expression. MDA-MB-231, MCF-7, PC-3, and HCT-116 cancerncells were treated with the indicated compounds for 24 hrs. over a dose range from 1.6 to 5000 nM. Gene expression was measured using qPCR, normalized to the housekeeping gene, 36B4, and calculated % change relative to DMSO control. NC, no change.

HCT-116 = test: viability (Alamar Blue), HCT-116; assay type: cell-based; details: Homo sapiens; HCT-116, 24 hrs
Description: (§2) Given Compounds 1, 4, and 15 inhibited cancer cell proliferation and stimulated apoptosis, we tested the effects compounds 1, 4, and 15 on cancer cell viability and cytotoxicity. The MDA-MB-231, MCF-7, PC-3, and HCT-116 cells were treated with the indicated compounds for 24 hrs. over a dose range from 1.6 to 5000 nM. Viability and cytotoxicity were then measured by the Alamar Blue and Vibrant Cytotox assays respectively.

PC-3 prostate tumors = test: PC-3 prostate tumor xenograft; assay type: in vivo, mice; details: for growth of PC-3 prostate tumors: i.p. 30 mg/kg daily for 19 days
Description: Based on the inhibition of cancer cell proliferation by the disclosed compounds the disclosed compounds likely will inhibit cancer cell migration. […] Following establishment of HCT-116 tumors, daily doses of either Compound 15 or vehicle were administered by i.p. injection at 20 mg/kg for 28 days. […] The weight of the excised HCT-116 tumors was 77% lower for the Compound 15-treated mice relative to the vehicle control on Day 28 of the experiment. […] Following establishment of PC-3 tumors, daily doses of either Compounds 1, 15 or vehicle were administered by i.p. injection at 30 mg/kg for 19 days. […] The weight of the excised PC-3 tumors was 66% for compound 15-treated mice compared to vehicle-treated controls on Day 19 of the experiment.

[2] = test system: SW480 colorectal cancer model cell line; test: SW480 cell proliferation and cell cycle (InCell 1000); assay type: cell-based, human
Description: Previous studies have shown that the Wnt signaling pathway drives cellular proliferation of a number of cancers through up-regulation of genes for several proteins crucial for cell division including Cyclin D1, c-Myc, etc. and treatment of cancer cells with 1 or analogs decreases cellular proliferation. Accordingly, we examined the effect of 1 and analogs on cell proliferation of human cancer cell lines. […] The results were confirmed by studying the effects of 1 on SW480 human colon cell cycle determined by cell images captured by InCell 1000.

[3] = cytotoxicity (Vibrant Cytotox assay), HCT-116; assay type: cell-based; details: human, HCT-116 cells; HCT-116, 24 hrs
Description: as §2

LNCap = test: viability (Alamar Blue), LNCap; assay type: cell-based; details: Homo sapiens, 24 hrs
HEK293 cells = test: apoptosis in HEK293 cells; assay type: cell-based; details: upon treatment
HEK-293T cells [4] = test: Alamar Blue resazurin-based cell viability assay, HEK-293T; details: Homo sapiens, read-out: decrease of cell viability, EC50
NF-B signaling pathway = NF-B signaling pathway transcriptional activity (selectivity); assay type: cell-based
[5] = cytotoxicity (Vibrant Cytotox assay), MDA-MB-231; assay type: cell-based; details: human, MDA-MB-231 cells; MDA-MB-231, 24 hrs
Description: as §2

[6] = test system: Endogenous Target Genes for Wnt & Apoptotic Pathways in HCT-116; test: qPCR of Wnt and pro-apoptotic target genes, HCT-116; assay type: cell-based; set-up: MYC expression, % change relative to DMSO control / CCDN1 expression, % change relative to DMSO control / BAX expression, % change relative to DMSO control / BBC3 expression, % change relative to DMSO control / FOS expression, % change relative to DMSO control: concentration or dose not given beside the values; details: HCT-116, 24 hrs, qPCR normalized to 36B4
Description: as §1

HEK-293T cells [7] = test: cytotoxicity by leakage of G6PDH, HEK-293T; assay type: cell-based
[8] = test system: canonical Wnt target genes, Cyclin D1 (CCND1), Axin2 (AXIN2), and c-Myc (c-MYC); test: mRNA levels of canonical Wnt target genes in HEK293T and SW480 cells; assay type: cell-based; details: HEK293T and SW480 colorectal cells
[9] = in vivo toxicity assessment in rats; details: 30 mg/kg p.o. daily for one week
Description: Compounds of structure I were designed to be chemically and metabolically stable and non-toxic. For example, the alpha methyl group of the quinoxalin ring system protects the sulfonamide from rapid metabolism or hydrolysis. […] We tested Compounds 4 and 15 for toxicity in rats. In one study, we dosed rats with Compound 4 (p.o) daily for one week with 30 mg/kg. In another study, we dosed rats daily for one week with 30 mg/kg Compound 15 by p.o. administration. We monitored the weights of the rats daily over the course of both studies. […] Blood was also obtained from the animals at termination of the experiment.

[10] = xenopus embryos incubated with compound

| SMILES | BAK expression, % change relative to DMSO control [1] [%] | BAX expression, % change relative to DMSO control [1] [%] | BBC3 expression, % change relative to DMSO control [1] [%] | CCDN1 expression, % change relative to DMSO control [1] [%] | JUN expression, % change relative to DMSO control [1] [%] | MYC expression, % change relative to DMSO control [1] [%] | IC50 (HCT-116) [nM] | growth of PC-3 prostate tumors (PC-3 prostate tumors) | IC50 at 24 h [3] [nM] | IC50 (LNCap) [nM] | IC50 at 24 h [5] [nM] | BAK expression, % change relative to DMSO control [6] | BAX expression, % change relative to DMSO control [6] | BBC3 expression, % change relative to DMSO control [6] [%] | CCDN1 expression, % change relative to DMSO control [6] | FOS expression, % change relative to DMSO control [6] [%] | JUN expression, % change relative to DMSO control [6] | MYC expression, % change relative to DMSO control [6] [%] | FOS expression, % change relative to DMSO control [1] | food or water intake or behavior [9] | also measured |
| --- | --- | --- | --- | --- | --- | --- | --- | --- | --- | --- | --- | --- | --- | --- | --- | --- | --- | --- | --- | --- | --- |
| O=C1CCCN1c1ccc(S(=O)(=O)N2CCCc3ccccc32)cc1 [Compound 1, 1-(4-(3,4-dihydroquinolin-1(2H)-ylsulfonyl)phenyl)pyrrolidin-2-one] | −42 | −70 | −78 | −72 | −50 | −70 | 30 | inhibited the growth of PC-3 prostate tumors | > 5000 | 90 | > 5000 | +75% | +5% | −80 | +40% | −70 | +525% | −45 | – | – | posterior development of xenopus embryos (xenopus embryos; treatment during the mid-blastula transition): inhibited posterior development; anterior and ventral expression domain of Vent2 (xenopus embryos; [10]): expanded; anterior marker gene Otx2 expression (xenopus embryos; [10]): decreased anterior marker gene Otx2; Ki67 protein levels ([2]; SW480 cells): elevated; cell cycle distribution ([2]; SW480 cells, InCell 1000 images): significantly more cells in G2 and less in G1/S phases; cancer cell proliferation (in words) ([2]; SW480 colon cancer cell line): significantly inhibited cancer cell proliferation; apoptotic HEK293 cells (HEK293 cells): increase in apoptotic HEK293 cells; EC50 (HEK-293T cells [4]): ~25 nM; transcriptional activity of the NF-B signaling pathway (NF-B signaling pathway): did not alter the transcriptional activity; cytotoxicity (leakage of G6PDH) (HEK-293T cells [7]): not cytotoxic; mRNA levels of canonical Wnt target genes CCND1, AXIN2, c-MYC [8]: decrease in mRNA levels |
| CC1CCc2ccccc2N1S(=O)(=O)c1ccc(N2CCCC2=O)cc1 (centres unmarked) [Compound 4, 1-(4-(2-methyl-3,4-dihydroquinolin-1(2H)-ylsulfonyl)phenyl)pyrrolidin-2-one] | −50 | −65 | −80 | −25 | −45 | −55 | 52 | – | > 5000 | 87 | > 5000 | +110% | – | −90 | −5% | −85 | +725% | −75 | +100% | no differences in food or water intake or behavior | overall toxicity in healthy rats [9]: nontoxic; weights of the rats compared to controls [9]: no differences in the weights of the rats were observed |
| CN1CCN(S(=O)(=O)c2ccc(N3CCCC3=O)cc2)c2ccccc21 [Compound 15, 1-(4-(4-methyl-3,4-dihydroquinoxalin-1(2H)-ylsulfonyl)phenyl)pyrrolidin-2-one] | −20 | −62 | −65 | −22 | −38 | −50 | 9 | inhibited the growth of PC-3 prostate tumors | > 5000 | 124 | > 5000 | +98% | −5% | −95 | +25% | −84 | +775% | −70 | −10% | no differences in food or water intake or behavior | weight of the excised PC-3 tumors compared to vehicle-treated controls (PC-3 prostate tumors; i.p. 30 mg/kg daily, Day 19): 66%; overall toxicity in healthy rats [9]: nontoxic; toxicity in tissue (liver, heart, kidney, lung and intestine) [9]: did not show any indication of toxicity; weights of the rats compared to controls [9]: no differences in the weights of the rats were observed; serum clinical chemistry values compared with vehicle-treated animals ([9]; at termination): did not alter the clinical chemistry values |
